From PubChem BioAssay AID1259407 (Chemical Carcinogenesis Research Information System (CCRIS), 2018)
The source made the active and inactive calls. No rule for the calls is given here.

Test system: CCRIS mutagenicity, Ames/micronucleus/aberration tests
Test: CCRIS mutagenicity studies
[1] = Test System: AMES SALMONELLA TYPHIMURIUM, Strain/Indicator: TA98, Metabolic Activation: NONE, Method: PREINCUBATION
[2] = Test System: AMES SALMONELLA TYPHIMURIUM, Strain/Indicator: TA100, Metabolic Activation: NONE, Method: PREINCUBATION
[3] = Test System: AMES SALMONELLA TYPHIMURIUM, Strain/Indicator: TA102, Metabolic Activation: NONE, Method: PREINCUBATION
[4] = Test System: AMES SALMONELLA TYPHIMURIUM, Strain/Indicator: TA98, Metabolic Activation: NONE, Method: STANDARD PLATE
[5] = Test System: AMES SALMONELLA TYPHIMURIUM, Strain/Indicator: TA100, Metabolic Activation: NONE, Method: STANDARD PLATE

For `CCCCOc1ccc(C=Nc2ccc(CC)cc2)cc1`, the mutagenic call (Test System: AMES SALMONELLA TYPHIMURIUM, Strain/Indicator: TA97, Metabolic Activation: HAMSTER, LIVER, S-9, AROCLOR 1254 (30%), Method: PREINCUBATION) was “inactive; negative”, the mutagenic call (Test System: AMES SALMONELLA TYPHIMURIUM, Strain/Indicator: TA97, Metabolic Activation: NONE, Method: PREINCUBATION) was “inactive; negative” and the mutagenic call (Test System: AMES SALMONELLA TYPHIMURIUM, Strain/Indicator: TA97, Metabolic Activation: RAT, LIVER, S-9, AROCLOR 1254 (30%), Method: PREINCUBATION) was “inactive; negative”. The mutagenic call (Test System: AMES SALMONELLA TYPHIMURIUM, Strain/Indicator: TA98, Metabolic Activation: HAMSTER, LIVER, S-9, AROCLOR 1254 (30%), Method: PREINCUBATION) was “inactive; negative”, the mutagenic call [1] was “inactive; negative” and the mutagenic call (Test System: AMES SALMONELLA TYPHIMURIUM, Strain/Indicator: TA98, Metabolic Activation: RAT, LIVER, S-9, AROCLOR 1254 (30%), Method: PREINCUBATION) was “inactive; negative”. For the same compound, the mutagenic call (Test System: AMES SALMONELLA TYPHIMURIUM, Strain/Indicator: TA100, Metabolic Activation: HAMSTER, LIVER, S-9, AROCLOR 1254 (10%), Method: PREINCUBATION) was “inactive; negative”, the mutagenic call [2] was “inactive; negative” and the mutagenic call (Test System: AMES SALMONELLA TYPHIMURIUM, Strain/Indicator: TA100, Metabolic Activation: RAT, LIVER, S-9, AROCLOR 1254 (30%), Method: PREINCUBATION) was “inactive; negative”. For the same compound, the mutagenic call (Test System: AMES SALMONELLA TYPHIMURIUM, Strain/Indicator: TA1535, Metabolic Activation: HAMSTER, LIVER, S-9, AROCLOR 1254 (10%), Method: PREINCUBATION) was “inactive; negative”, the mutagenic call (Test System: AMES SALMONELLA TYPHIMURIUM, Strain/Indicator: TA1535, Metabolic Activation: HAMSTER, LIVER, S-9, AROCLOR 1254 (30%), Method: PREINCUBATION) was “inactive; negative” and the mutagenic call (Test System: AMES SALMONELLA TYPHIMURIUM, Strain/Indicator: TA1535, Metabolic Activation: NONE, Method: PREINCUBATION) was “inactive; negative”. The mutagenic call (Test System: AMES SALMONELLA TYPHIMURIUM, Strain/Indicator: TA1535, Metabolic Activation: RAT, LIVER, S-9, AROCLOR 1254 (30%), Method: PREINCUBATION) was “inactive; negative”, the mutagenic call (Test System: AMES SALMONELLA TYPHIMURIUM, Strain/Indicator: TA1537, Metabolic Activation: HAMSTER, LIVER, S-9, AROCLOR 1254 (30%), Method: PREINCUBATION) was “inactive; negative” and the mutagenic call (Test System: AMES SALMONELLA TYPHIMURIUM, Strain/Indicator: TA1537, Metabolic Activation: NONE, Method: PREINCUBATION) was “inactive; negative”. The mutagenic call (Test System: AMES SALMONELLA TYPHIMURIUM, Strain/Indicator: TA1537, Metabolic Activation: RAT, LIVER, S-9, AROCLOR 1254 (30%), Method: PREINCUBATION) was “inactive; negative”.
In the case of `Cc1cnc(C)cn1`, the mutagenic call [1] is reported as “inactive; negative”, the mutagenic call (Test System: AMES SALMONELLA TYPHIMURIUM, Strain/Indicator: TA98, Metabolic Activation: RAT, LIVER, S-9, AROCLOR 1254, Method: PREINCUBATION) is reported as “inactive; negative” and the mutagenic call [2] is reported as “inactive; negative”. For the same compound, the mutagenic call (Test System: AMES SALMONELLA TYPHIMURIUM, Strain/Indicator: TA100, Metabolic Activation: RAT, LIVER, S-9, AROCLOR 1254, Method: PREINCUBATION) was “inactive; negative”, the mutagenic call [3] was “inactive; negative” and the mutagenic call (Test System: AMES SALMONELLA TYPHIMURIUM, Strain/Indicator: TA102, Metabolic Activation: RAT, LIVER, S-9, AROCLOR 1254, Method: PREINCUBATION) was “inactive; negative”.
With `CCCCOS(=O)(=O)OCCCC` the mutagenic call (End Point: In vitro micronucleus, Test System: Chinese Hamster Ovary (CHO-WBL) cells, Metabolic Activation: None) was “active; positive (p<0.01)”.
For `CCC(C(C)O)[N+](=O)[O-]` (stereo not drawn), the mutagenic call [1] was “inactive; negative”, the mutagenic call (Test System: AMES SALMONELLA TYPHIMURIUM, Strain/Indicator: TA98, Metabolic Activation: RAT, LIVER, S-9, AROCLOR, Method: PREINCUBATION) was “inactive; negative” and the mutagenic call [2] was “inactive; negative”. The mutagenic call (Test System: AMES SALMONELLA TYPHIMURIUM, Strain/Indicator: TA100, Metabolic Activation: RAT, LIVER, S-9, AROCLOR, Method: PREINCUBATION) was “inactive; negative”, the mutagenic call [3] was “inactive; negative” and the mutagenic call (Test System: AMES SALMONELLA TYPHIMURIUM, Strain/Indicator: TA102, Metabolic Activation: RAT, LIVER, S-9, AROCLOR, Method: PREINCUBATION) was “inactive; negative”.
In the case of `CNc1ccc2nc(C)c(C)nc2c1C`, the mutagenic call [1] is reported as “inactive; negative”, the mutagenic call (Test System: AMES SALMONELLA TYPHIMURIUM, Strain/Indicator: TA98, Metabolic Activation: RAT, LIVER, S-9, PCB, Method: PREINCUBATION) is reported as “active; positive” and the mutagenic call [2] is reported as “inactive; negative”. For the same compound, the mutagenic call (Test System: AMES SALMONELLA TYPHIMURIUM, Strain/Indicator: TA100, Metabolic Activation: RAT, LIVER, S-9, PCB, Method: PREINCUBATION) was “active; positive”.
In the case of `N#CCc1cn(N=O)c2ccccc12`, the mutagenic call (Test System: AMES SALMONELLA TYPHIMURIUM, Strain/Indicator: TA100, Metabolic Activation: NONE) is reported as “active; positive” and the mutagenic call (Test System: AMES SALMONELLA TYPHIMURIUM, Strain/Indicator: TA100, Metabolic Activation: S-9) is reported as “active; positive”.
`O=C1C(=O)c2ccccc2-c2ccccc21` was tested, and the mutagenic call (Test System: AMES SALMONELLA TYPHIMURIUM, Strain/Indicator: TA97A, Metabolic Activation: NONE, Method: PREINCUBATION) was “inactive; negative”, the mutagenic call [1] was “inactive; negative” and the mutagenic call [2] was “inactive; negative”. The mutagenic call [3] was “inactive; negative” and the mutagenic call (Test System: AMES SALMONELLA TYPHIMURIUM, Strain/Indicator: TA104, Metabolic Activation: NONE, Method: PREINCUBATION) was “inactive; negative”.
In the case of `COc1ccc(-c2nc(-c3ccc(C)cc3C)[nH]c2-c2ccc(OC)cc2)cc1`, the mutagenic call [4] is reported as “active; positive”, the mutagenic call (Test System: AMES SALMONELLA TYPHIMURIUM, Strain/Indicator: TA98, Metabolic Activation: RAT LIVER S-9, 3-METHYLCHOLANTHRENE, SODIUM PHENOBARBITAL, Method: STANDARD PLATE) is reported as “inactive; negative” and the mutagenic call [5] is reported as “active; positive”. For the same compound, the mutagenic call (Test System: AMES SALMONELLA TYPHIMURIUM, Strain/Indicator: TA100, Metabolic Activation: RAT LIVER S-9, 3-METHYLCHOLANTHRENE, SODIUM PHENOBARBITAL, Method: STANDARD PLATE) was “inactive; negative”.
For `C[C@@H]1O[C@@H]1c1ccccc1`, the mutagenic call (Test System: AMES SALMONELLA TYPHIMURIUM, Strain/Indicator: TA98, Metabolic Activation: NONE, Method: PREINCUBATION (PHOSPHATE-BUFFERED KCL OR SOLUTE-FREE WATER MEDIA)) was “inactive; negative”, the mutagenic call (Test System: AMES SALMONELLA TYPHIMURIUM, Strain/Indicator: TA100, Metabolic Activation: NONE, Method: PREINCUBATION (PHOSPHATE-BUFFERED KCL OR SOLUTE-FREE WATER MEDIA)) was “inactive; negative” and the mutagenic call (Test System: AMES SALMONELLA TYPHIMURIUM, Strain/Indicator: TA104, Metabolic Activation: NONE, Method: PREINCUBATION (PHOSPHATE-BUFFERED KCL OR SOLUTE-FREE WATER MEDIA)) was “inactive; negative”. For the same compound, the mutagenic call (Test System: CHINESE HAMSTER V-79, Strain/Indicator: V-79 (HPRT)/6-THIOGUANINE, Metabolic Activation: NONE) was “inactive; negative”.
For `S=C([S-])NCCNC(=S)[S-].[Zn+2]`, the mutagenic call [4] was “inactive; negative”, the mutagenic call (Test System: AMES SALMONELLA TYPHIMURIUM, Strain/Indicator: TA98, Metabolic Activation: RAT, LIVER, S-9, AROCLOR 1254, Method: STANDARD PLATE) was “inactive; negative” and the mutagenic call [5] was “inactive; negative”. For the same compound, the mutagenic call (Test System: AMES SALMONELLA TYPHIMURIUM, Strain/Indicator: TA100, Metabolic Activation: RAT, LIVER, S-9, AROCLOR 1254, Method: STANDARD PLATE) was “inactive; negative”, the mutagenic call (Test System: AMES SALMONELLA TYPHIMURIUM, Strain/Indicator: TA1535, Metabolic Activation: NONE, Method: STANDARD PLATE) was “inactive; negative” and the mutagenic call (Test System: AMES SALMONELLA TYPHIMURIUM, Strain/Indicator: TA1535, Metabolic Activation: RAT, LIVER, S-9, AROCLOR 1254, Method: STANDARD PLATE) was “inactive; negative”. The mutagenic call (Test System: AMES SALMONELLA TYPHIMURIUM, Strain/Indicator: TA1537, Metabolic Activation: NONE, Method: STANDARD PLATE) was “inactive; negative”, the mutagenic call (Test System: AMES SALMONELLA TYPHIMURIUM, Strain/Indicator: TA1537, Metabolic Activation: RAT, LIVER, S-9, AROCLOR 1254, Method: STANDARD PLATE) was “inactive; negative” and the mutagenic call (Test System: E. COLI, Strain/Indicator: WP2, Metabolic Activation: NONE, Method: STANDARD PLATE) was “inactive; negative”. The mutagenic call (Test System: E. COLI, Strain/Indicator: WP2, Metabolic Activation: RAT, LIVER, S-9, AROCLOR 1254, Method: STANDARD PLATE) was “inactive; negative”.
